Legend:
[1] = system: MM96L human melanoma cells; assay: Leukocyte killing with drug present, [3H]-thymidine labelling; type: cell-based; settings: 60 ng/mL with leukocytes, 48 hr; 100:1 ratio of effector:target cells
Procedure: (§1) Leukocytes obtained by lysis of human peripheral blood were added to 5000 MM96L human melanoma cells or 7000 neonatal foreskin fibroblasts per microtitre well at effector: target ratios of 1000, 100 and 10:1. Ing9 (60 ng/mL) was added and after 48 hr incubation the cultures were washed and labelled with [3H]-thymidine for 2 hr. […] Untreated leukocytes had no effect on cell survival.

[2] = system: MM96L human melanoma cells; assay: Killing by untreated leukocytes of drug-pretreated target cells; type: cell-based; settings: target cells treated with 60 ng/mL for 20 hr and washed before leukocytes; 100:1 ratio of effector:target cells
Procedure: as §1, with “The target cells had been treated with 60 ng/mL PEP008 for 20 hr beforehand,” for “Ing9 (60 ng/mL) was added”, “washed and the medium replaced before the leukocytes were added. After” for “after”, “incubation with the leukocytes” for “incubation”

[3] = system: neonatal foreskin fibroblasts; assay: as above; type: cell-based, human; settings: target cells treated with 60 ng/mL for 20 hr and washed before leukocytes; 100:1 ratio of effector:target cells
Procedure: as §1, with “The target cells had been treated with 60 ng/mL PEP008 for 20 hr beforehand,” for “Ing9 (60 ng/mL) was added”, “washed and the medium replaced before the leukocytes were added. After” for “after”, “incubation with the leukocytes” for “incubation”

[4] = system: peripheral blood mononuclear cells (PBMCs); assay: Phagocytosis with fluorescent beads; type: cell-based; settings: whole heparinized blood, 30 min at 37° C.
Procedure: Phagocytosis by peripheral blood mononuclear cells (PBMCs) was assayed (Steinkamp et al., 1982) using 1 μm Fluoresbrite™ yellow-green fluorescent latex spheres (Polysciences, Inc., Warrington, Pa.). A sample of whole, heparinized blood was treated with drug and 5×10E7 fluorescent latex beads in 10 μL of PBS added per mL of suspension. Cells were incubated and maintained in suspension for 30 min by means of a shaker platform at 37° C. The stimulated and non-stimulated samples were then lysed to isolate PBMCs. The PBMCs were run on the flow cytometer measuring FITC (excitation at 488 nm, emission at 525±20 nm), gated for fluorescence (phagocytosed spheres) and light scatter (cell size).

[5] = system: neonatal foreskin fibroblasts; assay: Leukocyte killing with drug present, [3H]-thymidine labelling; type: cell-based, human; settings: 60 ng/mL with leukocytes, 48 hr; 100:1 ratio of effector:target cells
Procedure: as §1

## C/C=C(/C)C(=O)O[C@H]1C(C)=C[C@]23C(=O)[C@@H](C=C(COC(C)=O)[C@@H](O)[C@]12O)[C@H]1[C@@H](C[C@H]3C)C1(C)C [PEP008, 20-O-acetyl-ingenol-3-angelate]
[1]
  survival of melanoma cells: 9%
[2]
  survival of melanoma cells: 12%
[3]
  survival of normal fibroblasts: 100%
[4]
  phagocytosis of fluorescent latex spheres in PBMCs: stimulate phagocytosis
[5]
  survival of normal fibroblasts: 100%

Source: US7449492B2, “Therapeutic agents—I” (priority 2000, dated 2008)
